The record followed here is patent US20250276983A1, “COMPOUNDS AND METHODS FOR MODULATING HER2” (IAMBIC THERAPEUTICS, INC., priority 2022, published 2025).

Structures are written as SMILES.

Format in all cases: cell-based
In assay [1] the test system is BaF3_HER2YVMA cells. The assay can be described thus: Cell growth inhibition assay, BaF3_HER2YVMA. Particulars: 72 h, BaF3_HER2YVMA cells, 3 days treatment, CellTiterGlo 2.0; read-out: HER2-YVMA IC50 (nM), cell growth inhibition. In general terms: In ATP-based viability assays light output follows the ATP content of the culture.
In assay [2] the test system is BaF3_EGFRWT cells. The assay can be described thus: Cell growth inhibition assay, BaF3_EGFRWT. Particulars: 72 h, 80 ng/mL recombinant human EGF, 3 days treatment, CellTiterGlo 2.0, read-out: EGFR WT IC50 (nM), cell growth inhibition.
The subject of assay [3] is BaF3_HER2WT cells. Kind of assay: Cell growth inhibition assay, BaF3_HER2WT. The following applies: 72 h, 3 days treatment, CellTiterGlo 2.0, read-out: HER2 WT IC50 (nM), cell growth inhibition.

As for `CNC/C=C/C(=O)N1CC(c2ccn3ncnc(Nc4ccc(Oc5ccn6ncnc6c5)c(C)c4)c23)C1` [Example 151, (E)-1-(3-(4-((4-([1,2,4]triazolo[1,5-a]pyridin-7-yloxy)-3-methylphenyl)amino)pyrrolo[2,1-f][1,2,4]triazin-5-yl)azetidin-1-yl)-4-(methylamino)but-2-en-1-one], the IC50 – broadly, the concentration needed to halve the response being measured – in assay [1] was < 200 nM; in assay [2], 1500 to 5000 nM; in assay [3] it was < 200 nM.
For the compound `Cc1cc(Nc2ncnn3cc(F)c(C4CCN(C(=O)/C=C/CN(C)C)CC4)c23)ccc1Oc1ccn2ncnc2c1` [Example 152, (E)-1-(4-(4-((4-([1,2,4]triazolo[1,5-a]pyridin-7-yloxy)-3-methylphenyl)amino)-6-fluoropyrrolo[2,1-f][1,2,4]triazin-5-yl)piperidin-1-yl)-4-(dimethylamino)but-2-en-1-one], the IC50 in assay [1] is < 200 nM; in assay [2] it was 1500 to 5000 nM; in assay [3] it was < 200 nM.
For the compound `CNC/C=C/C(=O)N1CC(c2ccn3ncnc(Nc4ccc(Oc5ccc6c(c5)ncn6C)c(C)c4)c23)C1` [Example 153, (E)-1-(3-(4-((3-methyl-4-((1-methyl-1H-benzo[d]imidazol-5-yl)oxy)phenyl)amino)pyrrolo[2,1-f][1,2,4]triazin-5-yl)azetidin-1-yl)-4-(methylamino)but-2-en-1-one], the concentration for half-maximal inhibition (IC50) in assay [1], in assay [2] and in assay [3] was 1500 to 5000 nM in each case.
As to `Cc1cc(Nc2ncnn3ccc(C4CCN(C(=O)/C=C/CO)CC4)c23)ccc1Oc1ccn2ncnc2c1` [Example 154, (E)-1-(4-(4-((4-([1,2,4]triazolo[1,5-a]pyridin-7-yloxy)-3-methylphenyl)amino)pyrrolo[2,1-f][1,2,4]triazin-5-yl)piperidin-1-yl)-4-hydroxybut-2-en-1-one], the half-inhibitory concentration (IC50) in assay [1] is < 200 nM; in assay [2], 1500 to 5000 nM; in assay [3], < 200 nM.
Take `Cc1cc(Nc2ncnn3ccc(C4CN(C(=O)/C=C/CN(C)C)C4)c23)ccc1Oc1ccn2ccnc2c1` [Example 157, (E)-4-(dimethylamino)-1-(3-(4-((4-(imidazo[1,2-a]pyridin-7-yloxy)-3-methylphenyl)amino)pyrrolo [2,1-f][1,2,4]triazin-5-yl)azetidin-1-yl)but-2-en-1-one]: the IC50 is < 200 nM in assay [1], 1500 to 5000 nM in assay [2] and < 200 nM in assay [3].
Turning to `Cc1cc(Nc2ncnn3ccc(C4CN(C(=O)/C=C/CN(C)C)C4)c23)ccc1Oc1cc2ncnn2cn1` [Example 158, (E)-1-(3-(4-((4-([1,2,4]triazolo[1,5-c]pyrimidin-7-yloxy)-3-methylphenyl)amino)pyrrolo[2,1-f][1,2,4]triazin-5-yl)azetidin-1-yl)-4-(dimethylamino)but-2-en-1-one], the IC50 in assay [1] was < 200 nM; in assay [2] it was 500 to 1500 nM; in assay [3], < 200 nM.
As to `Cc1cc(Nc2ncnn3ccc(C4CN(C(=O)/C=C/C56CCCN5CCC6)C4)c23)ccc1Oc1ccn2ncnc2c1` [Example 159, (E)-1-(3-(4-((4-([1,2,4]triazolo[1,5-a]pyridin-7-yloxy)-3-methylphenyl)amino)pyrrolo[2,1-f][1,2,4]triazin-5-yl)azetidin-1-yl)-3-(tetrahydro-1H-pyrrolizin-7a(5H)-yl)prop-2-en-1-one], the figures for the concentration for half-maximal inhibition (IC50) in assay [1], in assay [2] and in assay [3] were < 200 nM, 1500 to 5000 nM and < 200 nM, respectively.
Regarding `Cc1cc(Nc2ncnn3ccc(C4CN(C(=O)/C=C\C56CCCN5CCC6)C4)c23)ccc1Oc1ccn2ncnc2c1` [Example 160, (Z)-1-(3-(4-((4-([1,2,4]triazolo[1,5-a]pyridin-7-yloxy)-3-methylphenyl)amino)pyrrolo[2,1-f][1,2,4]triazin-5-yl)azetidin-1-yl)-3-(tetrahydro-1H-pyrrolizin-7a(5H)-yl)prop-2-en-1-one], the IC50 was < 200 nM in assay [1], 1500 to 5000 nM in assay [2] and < 200 nM in assay [3].
As to `Cc1cc(Nc2ncnn3ccc(C4CN(C(=O)/C=C/CN5CC(F)C5)C4)c23)ccc1Oc1ccc2c(c1)ncn2C` [Example 161, (E)-4-(3-fluoroazetidin-1-yl)-1-(3-(4-((3-methyl-4-((1-methyl-1H-benzo[d]imidazol-5-yl)oxy)phenyl)amino)pyrrolo[2,1-f][1,2,4]triazin-5-yl)azetidin-1-yl)but-2-en-1-one], the values for the IC50 in assay [1], in assay [2] and in assay [3] were < 200 nM, 1500 to 5000 nM and < 200 nM, respectively.
As for `Cc1cc(Nc2ncnn3ccc(C4CCN(C(=O)/C=C/CN5CC(F)C5)CC4)c23)ccc1Oc1ccc2c(c1)ncn2C` [Example 162, (E)-4-(3-fluoroazetidin-1-yl)-1-(4-(4-((3-methyl-4-((1-methyl-1H-benzo[d]imidazol-5-yl)oxy)phenyl)amino)pyrrolo[2,1-f][1,2,4]triazin-5-yl)piperidin-1-yl)but-2-en-1-one], the values for the IC50 in assay [1], in assay [2] and in assay [3] were 500 to 1500 nM, 1500 to 5000 nM and 200 to 500 nM, respectively.
For `Cc1cc(Nc2ncnn3ccc(C4CCN(C(=O)/C=C/CN5CC(F)C5)CC4)c23)ccc1Oc1ccn2ncnc2c1` [Example 163] the same measures were < 200 nM, 1500 to 5000 nM and < 200 nM.
Consider `Cc1cc(Nc2ncnn3ccc(C4CCN(C(=O)/C=C/CN5CCC(F)C5)CC4)c23)ccc1Oc1ccn2ncnc2c1` (stereo not drawn) [Example 164, (E)-1-(4-(4-((4-([1,2,4]triazolo[1,5-a]pyridin-7-yloxy)-3-methylphenyl)amino)pyrrolo[2,1-f][1,2,4]triazin-5-yl)piperidin-1-yl)-4-(3-fluoropyrrolidin-1-yl)but-2-en-1-one], for which the values for the IC50 in assay [1], in assay [2] and in assay [3] were < 200 nM, 1500 to 5000 nM and < 200 nM, respectively.
Take `CO[C@H]1CN(C/C=C/C(=O)N2CC(c3ccn4ncnc(Nc5ccc(Oc6ccc7c(c6)ncn7C)c(C)c5)c34)C2)C[C@H]1OC` [Example 165, (E)-4-((3R,4S)-3,4-dimethoxypyrrolidin-1-yl)-1-(3-(4-((3-methyl-4-((1-methyl-1H-benzo[d]imidazol-5-yl)oxy)phenyl)amino)pyrrolo[2,1-f][1,2,4]triazin-5-yl)azetidin-1-yl)but-2-en-1-one]: the values for the 50% inhibitory concentration (IC50) in assay [1], in assay [2] and in assay [3] were < 200 nM, 1500 to 5000 nM and < 200 nM, respectively.
Turning to `CO[C@@H]1CN(C/C=C/C(=O)N2CC(c3ccn4ncnc(Nc5ccc(Oc6ccc7c(c6)ncn7C)c(C)c5)c34)C2)C[C@H]1OC` [Example 166, (E)-4-((3R,4R)-3,4-dimethoxypyrrolidin-1-yl)-1-(3-(4-((3-methyl-4-((1-methyl-1H-benzo[d]imidazol-5-yl)oxy)phenyl)amino)pyrrolo[2,1-f][1,2,4]triazin-5-yl)azetidin-1-yl)but-2-en-1-one], the values for the 50% inhibitory concentration (IC50) in assay [1], in assay [2] and in assay [3] were < 200 nM, 1500 to 5000 nM and < 200 nM, respectively.
In the case of `CO[C@H]1CN(C/C=C/C(=O)N2CCC(c3ccn4ncnc(Nc5ccc(Oc6ccc7c(c6)ncn7C)c(C)c5)c34)CC2)C[C@H]1OC` [Example 167, (E)-4-((3R,4S)-3,4-dimethoxypyrrolidin-1-yl)-1-(4-(4-((3-methyl-4-((1-methyl-1H-benzo[d]imidazol-5-yl)oxy)phenyl)amino)pyrrolo[2,1-f][1,2,4]triazin-5-yl)piperidin-1-yl)but-2-en-1-one], the IC50 in assay [1] was < 200 nM; in assay [2] it was 1500 to 5000 nM; in assay [3], < 200 nM.
With `CO[C@@H]1CN(C/C=C/C(=O)N2CCC(c3ccn4ncnc(Nc5ccc(Oc6ccc7c(c6)ncn7C)c(C)c5)c34)CC2)C[C@H]1OC` [Example 168, (E)-4-((3R,4R)-3,4-dimethoxypyrrolidin-1-yl)-1-(4-(4-((3-methyl-4-((1-methyl-1H-benzo[d]imidazol-5-yl)oxy)phenyl)amino)pyrrolo[2,1-f][1,2,4]triazin-5-yl)piperidin-1-yl)but-2-en-1-one], the IC50 was < 200 nM in assay [1], 1500 to 5000 nM in assay [2] and < 200 nM in assay [3].
As for `CO[C@H]1CN(C/C=C/C(=O)N2CCC(c3ccn4ncnc(Nc5ccc(Oc6ccn7ncnc7c6)c(C)c5)c34)CC2)C[C@H]1OC` [Example 169, (E)-1-(4-(4-((4-([1,2,4]triazolo[1,5-a]pyridin-7-yloxy)-3-methylphenyl)amino)pyrrolo[2,1-f][1,2,4]triazin-5-yl)piperidin-1-yl)-4-((3R,4S)-3,4-dimethoxypyrrolidin-1-yl)but-2-en-1-one], the IC50 in assay [1] is < 200 nM; in assay [2], 1500 to 5000 nM; in assay [3] it was < 200 nM.
For `CO[C@@H]1CN(C/C=C/C(=O)N2CCC(c3ccn4ncnc(Nc5ccc(Oc6ccn7ncnc7c6)c(C)c5)c34)CC2)C[C@H]1OC` [Example 170, (E)-1-(4-(4-((4-([1,2,4]triazolo[1,5-a]pyridin-7-yloxy)-3-methylphenyl)amino)pyrrolo[2,1-f][1,2,4]triazin-5-yl)piperidin-1-yl)-4-((3R,4R)-3,4-dimethoxypyrrolidin-1-yl)but-2-en-1-one], the values for the IC50 in assay [1], in assay [2] and in assay [3] were < 200 nM, 1500 to 5000 nM and < 200 nM, respectively.
As to `Cc1cc(Nc2ncnn3ccc(C4(F)CCN(C(=O)/C=C/CN(C)C)CC4)c23)ccc1Oc1ccn2ncnc2c1` [Example 175, (E)-1-(4-(4-((4-([1,2,4]triazolo[1,5-a]pyridin-7-yloxy)-3-methylphenyl)amino)pyrrolo[2,1-f][1,2,4]triazin-5-yl)-4-fluoropiperidin-1-yl)-4-(dimethylamino)but-2-en-1-one], the half-inhibitory concentration (IC50) in assay [1], in assay [2] and in assay [3] was 1500 to 5000 nM throughout.
As for `Cc1cc(Nc2ncnn3ccc(C4CCN(C(=O)/C=C/CN(C)C)CC4(F)F)c23)ccc1Oc1ccn2ncnc2c1` (stereo not drawn) [Example 176, (E)-1-(4-(4-((4-([1,2,4]triazolo[1,5-a]pyridin-7-yloxy)-3-methylphenyl)amino)pyrrolo[2,1-f][1,2,4]triazin-5-yl)-3,3-difluoropiperidin-1-yl)-4-(dimethylamino)but-2-en-1-one], the figures for the half-maximal inhibitory concentration (IC50) in assay [1], in assay [2] and in assay [3] were < 200 nM, 1500 to 5000 nM and < 200 nM, respectively.
